Where “and” joins values, the source holds several entries; their conditions need not be identical. Equal entries are not always repeated.
Assays:
Helios = target: T1, Helios (Homo sapiens, UniProt Q96SW2+Q9UKS7); test: Helios Cellular Degradation Assay (flow cytometry, Helios-PE antibody staining, 72 h); format: cell-based; settings: Jurkat cells, 72 h incubation, flow cytometry; for Dmax: Jurkat, read-out: Helios Dmax
T1 construct: fluorescently labelled antibodies against Helios and Ikaros; endogenous in cells; host or cells: Jurkat cells
T1 sequence (Q9UKS7 whole entry): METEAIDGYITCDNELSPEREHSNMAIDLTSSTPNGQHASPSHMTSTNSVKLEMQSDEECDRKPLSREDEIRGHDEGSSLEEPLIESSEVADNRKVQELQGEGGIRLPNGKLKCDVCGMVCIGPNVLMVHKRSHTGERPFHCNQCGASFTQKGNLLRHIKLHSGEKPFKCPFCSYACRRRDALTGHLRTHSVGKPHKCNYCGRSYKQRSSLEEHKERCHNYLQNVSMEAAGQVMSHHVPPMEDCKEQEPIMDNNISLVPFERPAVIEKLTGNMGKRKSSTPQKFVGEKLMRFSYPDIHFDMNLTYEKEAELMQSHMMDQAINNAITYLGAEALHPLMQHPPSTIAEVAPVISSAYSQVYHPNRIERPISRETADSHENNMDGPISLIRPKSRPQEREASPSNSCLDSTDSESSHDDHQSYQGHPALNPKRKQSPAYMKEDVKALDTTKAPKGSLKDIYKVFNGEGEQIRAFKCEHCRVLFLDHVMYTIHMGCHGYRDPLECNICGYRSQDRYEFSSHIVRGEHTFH
T1 sequence (Q96SW2 whole entry): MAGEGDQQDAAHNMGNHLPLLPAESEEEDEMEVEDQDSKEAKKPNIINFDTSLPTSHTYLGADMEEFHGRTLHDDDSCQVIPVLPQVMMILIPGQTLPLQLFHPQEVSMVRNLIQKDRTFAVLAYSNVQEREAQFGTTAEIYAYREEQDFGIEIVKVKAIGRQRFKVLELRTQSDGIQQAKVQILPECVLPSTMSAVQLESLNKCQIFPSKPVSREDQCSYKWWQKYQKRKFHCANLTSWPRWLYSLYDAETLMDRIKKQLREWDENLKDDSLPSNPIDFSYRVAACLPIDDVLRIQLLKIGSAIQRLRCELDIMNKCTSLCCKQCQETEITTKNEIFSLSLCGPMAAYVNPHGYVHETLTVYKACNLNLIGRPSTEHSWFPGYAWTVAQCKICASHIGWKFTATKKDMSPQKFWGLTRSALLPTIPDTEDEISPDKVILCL
T1 sequence (Q16531 whole entry partner): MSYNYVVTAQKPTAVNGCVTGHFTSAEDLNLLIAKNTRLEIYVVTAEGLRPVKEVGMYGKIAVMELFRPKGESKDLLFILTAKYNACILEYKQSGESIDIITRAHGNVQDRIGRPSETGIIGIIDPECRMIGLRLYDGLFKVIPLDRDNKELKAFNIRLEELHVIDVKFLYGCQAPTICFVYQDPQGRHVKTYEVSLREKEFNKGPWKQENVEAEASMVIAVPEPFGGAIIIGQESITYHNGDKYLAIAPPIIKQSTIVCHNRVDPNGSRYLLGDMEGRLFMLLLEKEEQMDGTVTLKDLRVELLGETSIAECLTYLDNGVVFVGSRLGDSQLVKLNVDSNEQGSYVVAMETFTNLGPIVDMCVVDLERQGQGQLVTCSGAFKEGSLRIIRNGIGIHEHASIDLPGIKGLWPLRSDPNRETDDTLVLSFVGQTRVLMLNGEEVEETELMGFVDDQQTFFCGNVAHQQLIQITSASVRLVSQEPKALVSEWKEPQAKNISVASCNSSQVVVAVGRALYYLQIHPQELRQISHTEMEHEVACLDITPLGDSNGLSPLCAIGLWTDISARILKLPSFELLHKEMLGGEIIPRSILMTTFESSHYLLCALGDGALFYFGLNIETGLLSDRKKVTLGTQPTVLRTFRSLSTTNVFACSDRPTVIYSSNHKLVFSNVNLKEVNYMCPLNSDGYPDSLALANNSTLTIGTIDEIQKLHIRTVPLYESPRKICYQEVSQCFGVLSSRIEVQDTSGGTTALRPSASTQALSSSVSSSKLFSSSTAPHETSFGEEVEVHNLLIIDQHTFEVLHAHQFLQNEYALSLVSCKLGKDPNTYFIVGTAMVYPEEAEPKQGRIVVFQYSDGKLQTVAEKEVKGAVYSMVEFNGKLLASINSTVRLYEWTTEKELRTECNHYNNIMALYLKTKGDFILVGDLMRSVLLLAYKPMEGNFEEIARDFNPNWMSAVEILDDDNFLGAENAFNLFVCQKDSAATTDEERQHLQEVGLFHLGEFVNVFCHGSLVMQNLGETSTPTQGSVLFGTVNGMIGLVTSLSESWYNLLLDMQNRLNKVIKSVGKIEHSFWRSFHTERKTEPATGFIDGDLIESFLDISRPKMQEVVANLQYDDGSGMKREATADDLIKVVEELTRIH
Procedure, shortened: (§1)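 Jurkat cells (80,000/well, RPMI+10% FBS) were exposed to compound for 72 h at 37 °C, then fixed, permeabilized and co-stained for 1 h with Ikaros-Alexa488 and Helios-PE antibodies. Intracellular protein levels were read by flow cytometry.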

Ikaros = target: T2, Ikaros (Homo sapiens, UniProt Q13422); test: Helios Cellular Degradation Assay, Ikaros readout (flow cytometry, Ikaros-Alexa488 antibody staining, 72 h); format: cell-based; settings: Jurkat cells, 72 h incubation, flow cytometry; for Dmax: Jurkat, read-out: Ikaros Dmax
T2 construct: fluorescently labelled antibodies against Helios and Ikaros; endogenous in cells; host or cells: Jurkat cells
T2 sequence (Q96SW2 whole entry partner): as the sequence (Q96SW2 whole entry) above
T2 sequence (Q16531 whole entry partner): as the sequence (Q16531 whole entry partner) above
T2 sequence (Q13422 whole entry): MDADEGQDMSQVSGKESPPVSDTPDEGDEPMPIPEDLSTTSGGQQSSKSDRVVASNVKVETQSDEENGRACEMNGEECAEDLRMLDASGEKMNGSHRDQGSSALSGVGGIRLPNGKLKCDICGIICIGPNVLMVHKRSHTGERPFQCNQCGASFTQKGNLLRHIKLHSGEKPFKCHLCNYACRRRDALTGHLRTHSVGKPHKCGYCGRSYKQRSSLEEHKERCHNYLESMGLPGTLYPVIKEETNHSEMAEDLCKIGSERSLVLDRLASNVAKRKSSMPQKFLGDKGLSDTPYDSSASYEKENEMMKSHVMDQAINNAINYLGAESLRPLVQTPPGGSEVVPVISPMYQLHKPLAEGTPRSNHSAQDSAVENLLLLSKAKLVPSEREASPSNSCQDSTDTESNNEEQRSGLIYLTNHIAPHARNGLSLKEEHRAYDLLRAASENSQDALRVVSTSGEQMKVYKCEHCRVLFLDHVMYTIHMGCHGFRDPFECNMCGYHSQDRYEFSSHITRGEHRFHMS
Procedure, shortened: as §1

DC50 (Helios) | Dmax (Helios) | DC50 (Ikaros) | Dmax (Ikaros) | Helios Dmax (Helios) | Ikaros Dmax (Ikaros) | SMILES
309 nM | 77% | > 10000 nM | 20% | – | – | COc1ccc(CN(C)Cc2ccnc(-c3ccc4c(c3)CN(C3CCC(=O)NC3=O)C4=O)c2)cn1 (centres unmarked) [Example 168, 3-{5-[4-({[(6-Methoxypyridin-3-yl)methyl](methyl)amino}methyl)pyridin-2-yl]-1-oxo-2,3-dihydro-1H-isoindol-2-yl}piperidine-2,6-dione]
195 nM | 79% | > 10000 nM | 16% | – | – | CN(Cc1ccnc(-c2ccc3c(c2)CN(C2CCC(=O)NC2=O)C3=O)c1)Cc1cccc2[nH]ncc12 (centres unmarked) [Example 169, 3-(5-(4-((((1H-indazol-4-yl)methyl)(methyl)amino)methyl)pyridin-2-yl)-1-oxoisoindolin-2-yl)piperidine-2,6-dione]
> 10000 nM | 22% | > 10000 nM | 2% | – | – | CN1CCC(N(C)Cc2ccnc(-c3ccc4c(c3)CN(C3CCC(=O)NC3=O)C4=O)c2)CC1 (centres unmarked) [Example 170, 3-(5-(4-((methyl (1-methylpiperidin-4-yl)amino)methyl)pyridin-2-yl)-1-oxoisoindolin-2-yl)piperidine-2,6-dione]
317 nM | 80% | > 10000 nM | 4% | – | – | CN(CCc1ccccc1)Cc1ccnc(-c2ccc3c(c2)CN(C2CCC(=O)NC2=O)C3=O)c1 (centres unmarked) [Example 171, 3-(5-(4-((methyl(phenethyl)amino)methyl)pyridin-2-yl)-1-oxoisoindolin-2-yl)piperidine-2,6-dione]
75 nM | 90% | > 10000 nM | 12% | – | – | CN(Cc1ccoc1)Cc1ccnc(-c2ccc3c(c2)CN(C2CCC(=O)NC2=O)C3=O)c1 (centres unmarked) [Example 172, 3-(5-(4-(((furan-3-ylmethyl)(methyl)amino)methyl)pyridin-2-yl)-1-oxoisoindolin-2-yl)piperidine-2,6-dione]
73 nM | 86% | > 10000 nM | 0% | – | – | CN(Cc1ccnc(-c2ccc3c(c2)CN(C2CCC(=O)NC2=O)C3=O)c1)CC1CC1 (centres unmarked) [Example 173, 3-(5-(4-(((cyclopropylmethyl)(methyl)amino)methyl)pyridin-2-yl)-1-oxoisoindolin-2-yl) piperidine-2,6-dione]
5870 nM | 54% | > 10000 nM | 20% | – | – | CN(Cc1ccnc(-c2ccc3c(c2)CN(C2CCC(=O)NC2=O)C3=O)c1)Cc1cncn1C (centres unmarked) [Example 174, 3-(5-(4-((methyl((1-methyl-1H-imidazol-5-yl)methyl)amino)methyl)pyridin-2-yl)-1-oxoisoindolin-2-yl)piperidine-2,6-dione]
78 nM | 78% | > 10000 nM | 7% | – | – | CN(Cc1ccnc(-c2ccc3c(c2)CN(C2CCC(=O)NC2=O)C3=O)c1)CC1CCCC1 (centres unmarked) [Example 175, 3-(5-(4-(((cyclopentylmethyl)(methyl)amino)methyl)pyridin-2-yl)-1-oxoisoindolin-2-yl) piperidine-2,6-dione]
1120 nM | 65% | > 10000 nM | 30% | – | – | CN(Cc1ccnc(-c2ccc3c(c2)CN(C2CCC(=O)NC2=O)C3=O)c1)Cc1nccs1 (centres unmarked) [Example 176, 3-(5-(4-((methyl(thiazol-2-ylmethyl)amino)methyl)pyridin-2-yl)-1-oxoisoindolin-2-yl)piperidine-2,6-dione]
> 10000 nM | 43% | > 10000 nM | 12% | – | – | CN(Cc1ccc(-n2ccnc2)cc1)Cc1ccnc(-c2ccc3c(c2)CN(C2CCC(=O)NC2=O)C3=O)c1 (centres unmarked) [Example 177, 3-(5-(4-(((4-(1H-imidazol-1-yl)benzyl)(methyl)amino)methyl)pyridin-2-yl)-1-oxoisoindolin-2-yl)piperidine-2,6-dione]
212 nM | 78% | > 10000 nM | 4% | – | – | CC(C)CN(C)Cc1ccnc(-c2ccc3c(c2)CN(C2CCC(=O)NC2=O)C3=O)c1 (centres unmarked) [Example 179, 3-(5-(4-((isobutyl(methyl)amino)methyl)pyridin-2-yl)-1-oxoisoindolin-2-yl)piperidine-2,6-dione]
352 nM | 87% | > 10000 nM | 13% | – | – | CC(C)CCN(C)Cc1ccnc(-c2ccc3c(c2)CN(C2CCC(=O)NC2=O)C3=O)c1 (centres unmarked) [Example 180, 3-(5-(4-((isopentyl(methyl)amino)methyl)pyridin-2-yl)-1-oxoisoindolin-2-yl)piperidine-2,6-dione]
499 nM | 83% | > 10000 nM | 10% | – | – | CC(CO)N(C)Cc1ccnc(-c2ccc3c(c2)CN(C2CCC(=O)NC2=O)C3=O)c1 (centres unmarked) [Example 181, 3-(5-(4-(((1-hydroxypropan-2-yl)(methyl)amino)methyl)pyridin-2-yl)-1-oxoisoindolin-2-yl) piperidine-2,6-dione]
316 nM | 79% | > 10000 nM | 23% | – | – | CN(Cc1ccnc(-c2ccc3c(c2)CN(C2CCC(=O)NC2=O)C3=O)c1)CC1CCOC1 (centres unmarked) [Example 182, 3-(5-(4-((methyl((tetrahydrofuran-3-yl)methyl)amino)methyl)pyridin-2-yl)-1-oxoisoindolin-2-yl)piperidine-2,6-dione]
167 nM | 76% | > 10000 nM | 10% | – | – | CN(Cc1ccnc(-c2ccc3c(c2)CN(C2CCC(=O)NC2=O)C3=O)c1)Cc1cnc2ccccc2n1 (centres unmarked) [Example 183, 3-(5-(4-((methyl (quinoxalin-2-ylmethyl)amino)methyl)pyridin-2-yl)-1-oxoisoindolin-2-yl)piperidine-2,6-dione]
6050 nM | 54% | > 10000 nM | 14% | – | – | CN(CCC(F)(F)F)Cc1ccnc(-c2ccc3c(c2)CN(C2CCC(=O)NC2=O)C3=O)c1 (centres unmarked) [Example 184, 3-(5-(4-((methyl(3,3,3-trifluoropropyl)amino)methyl)pyridin-2-yl)-1-oxoisoindolin-2-yl)piperidine-2,6-dione]
421 nM | 62% | > 10000 nM | 2% | – | – | CC(CCO)N(C)Cc1ccnc(-c2ccc3c(c2)CN(C2CCC(=O)NC2=O)C3=O)c1 (centres unmarked) [Example 185, 3-(5-(4-(((4-hydroxybutan-2-yl)(methyl)amino)methyl)pyridin-2-yl)-1-oxoisoindolin-2-yl)piperidine-2,6-dione]
230 nM | 62% | > 10000 nM | 8% | – | – | O=C1CCC(N2Cc3cc(-c4cc(CN5CC(c6ccccc6)C5)c(Cl)cn4)ccc3C2=O)C(=O)N1 (centres unmarked) [Example 186, 3-(5-(5-chloro-4-((3-phenylazetidin-1-yl)methyl)pyridin-2-yl)-1-oxoisoindolin-2-yl)piperidine-2,6-dione]
24 nM | 84% | > 10000 nM | 6% | – | – | O=C1CCC(N2Cc3cc(-c4cc(CN5CCC5c5ccccc5)c(Cl)cn4)ccc3C2=O)C(=O)N1 (centres unmarked) [Example 187, 3-(5-(5-chloro-4-((2-phenylazetidin-1-yl)methyl)pyridin-2-yl)-1-oxoisoindolin-2-yl)piperidine-2,6-dione]
27 nM | 76% | – | 16% | – | – | O=C1CCC(N2Cc3cc(-c4cc(CN5CC(c6ccccc6)C5)c(F)cn4)ccc3C2=O)C(=O)N1 (centres unmarked) [Example 188, 3-(5-(5-fluoro-4-((3-phenylazetidin-1-yl)methyl)pyridin-2-yl)-1-oxoisoindolin-2-yl) piperidine-2,6-dione]
11 nM | 80% | > 10000 nM | 16% | – | – | O=C1CCC(N2Cc3cc(-c4cc(CN5CCC5c5ccccc5)c(F)cn4)ccc3C2=O)C(=O)N1 (centres unmarked) [Example 189, 3-(5-(5-fluoro-4-((2-phenylazetidin-1-yl)methyl)pyridin-2-yl)-1-oxoisoindolin-2-yl)piperidine-2,6-dione]
76 nM | 71% | > 10000 nM | 16% | – | – | O=C1CCC(N2Cc3cc(-c4cc(CN5CC(c6cccnc6)C5)c(F)cn4)ccc3C2=O)C(=O)N1 (centres unmarked) [Example 190, 3-(5-(5-fluoro-4-((3-(pyridin-3-yl)azetidin-1-yl)methyl)pyridin-2-yl)-1-oxoisoindolin-2-yl) piperidine-2,6-dione]
3200 nM | 52% | > 10000 nM | 3% | – | – | O=C1CCC(N2Cc3cc(-c4nccc(CN5CC(c6ccccc6)C5)c4F)ccc3C2=O)C(=O)N1 (centres unmarked) [Example 191, 3-(5-(3-fluoro-4-((3-phenylazetidin-1-yl)methyl)pyridin-2-yl)-1-oxoisoindolin-2-yl) piperidine-2,6-dione]
> 10000 nM | 41% | > 10000 nM | 16% | – | – | O=C1CCC(N2Cc3cc(-c4nccc(CN5CC(c6cccnc6)C5)c4F)ccc3C2=O)C(=O)N1 (centres unmarked) [Example 192, 3-(5-(3-fluoro-4-((3-(pyridin-3-yl)azetidin-1-yl)methyl)pyridin-2-yl)-1-oxoisoindolin-2-yl)piperidine-2,6-dione]
120 nM | 60% | > 10000 nM | 14% | – | – | O=C1CCC(N2Cc3cc(-c4nccc(CN5CCC5c5ccccc5)c4F)ccc3C2=O)C(=O)N1 (centres unmarked) [Example 193, 3-(5-(3-fluoro-4-((2-phenylazetidin-1-yl)methyl)pyridin-2-yl)-1-oxoisoindolin-2-yl) piperidine-2,6-dione]
> 10000 nM | 5.16% | > 10000 nM | – | 5.2% | 0.04% and 3% | Cc1cc2c(cc1-c1cc(CN(C)C)ccn1)CN(C1CCC(=O)NC1=O)C2=O (centres unmarked) [Example 194, 3-(5-(4-((dimethylamino)methyl)pyridin-2-yl)-6-methyl-1-oxoisoindolin-2-yl)piperidine-2,6-dione]

— US11548870B2, “Compounds useful as inhibitors of helios protein” (Bristol-Myers Squibb Company, priority 2019, dated 2023)
